According to US8633154B2, “Cyclodepsipeptides with antineoplastic activity and methods of using to inhibit cancer and microbial growth” (Arizona Board of Regents, a body corporate of the State of …, priority 2007, dated 2014):
Converted amounts (≈) assume the structure as drawn.

Assays:
Assay type in all cases: cell-based
[1] = system: BXPC-3; assay: Human cancer cell line growth inhibition, BXPC-3
[2] = system: MCF-7; assay: Human cancer cell line growth inhibition, MCF-7
[3] = system: SF268; assay: Human cancer cell line growth inhibition, SF268
[4] = system: NCI-H460; assay: Human cancer cell line growth inhibition, NCI-H460
[5] = system: KM20L2; assay: Human cancer cell line growth inhibition, KM20L2
[6] = system: DU-145; assay: Human cancer cell line growth inhibition, DU-145
[7] = system: Cryptococcus neoformans ATCC 90112; assay: Broth microdilution susceptibility assay, Cryptococcus neoformans
Description: (§1) Cyclodepsipeptides 1 and 2 were screened against the bacteria Stenotrophomonas maltophilia ATCC 13637, Micrococcus luteus Presque Isle 456, Staphylococcus aureus ATCC 29213, Escherichia coli ATCC 25922, Enterobacter cloacae ATCC 13047, Enterococcus faecalis ATCC 29212, Streptococcus pneumoniae ATCC 6303, Neisseria gonorrhoeae ATCC 49226, and the fungi Candida albicans ATCC 90028 and Cryptococcus neoformans ATCC 90112, according to established broth microdilution susceptibility assays.^15,16 Owing to a paucity of material, compound 2 was tested against S. maltophilia, M. luteus, S. aureus, E. coli and C. albicans only. Compounds were reconstituted in a small volume of sterile DMSO and diluted in the appropriate media immediately prior to susceptibility experiments. The minimum inhibitory concentration was defined as the lowest concentration of compound that inhibited all visible growth of the test organism (optically clear). Assays were repeated on separate days.

[8] = system: Micrococcus luteus Presque Isle 456; assay: Broth microdilution susceptibility assay, Micrococcus luteus
Description: as §1

[9] = system: Enterococcus faecalis ATCC 29212; assay: Broth microdilution susceptibility assay, Enterococcus faecalis; conditions: ATCC29212, read-out: minimum inhibitory concentration [MIC]
Description: as §1

Compound	Inhibition of Human Cancer Cell Lines (GI50) BXPC-3 [1] [ng/mL]	Inhibition of Human Cancer Cell Lines (GI50) MCF-7 [2] [ng/mL]	Inhibition of Human Cancer Cell Lines (GI50) SF268 [3] [ng/mL]	Inhibition of Human Cancer Cell Lines (GI50) NCI-H460 [4] [ng/mL]	Inhibition of Human Cancer Cell Lines (GI50) KM20L2 [5] [ng/mL]	Inhibition of Human Cancer Cell Lines (GI50) DU-145 [6] [ng/mL]	minimum inhibitory concentration [MIC] ([7]; broth microdilution) [ng/mL]	minimum inhibitory concentration [MIC] [8] [ng/mL]	GI50 ([1]; Homo sapiens, read-out: Inhibition of Human Cancer Cell Lines (GI50) BXPC-3) [ng/mL]	GI50 ([2]; Homo sapiens, MCF7, read-out: Inhibition of Human Cancer Cell Lines (GI50) MCF-7) [ng/mL]	GI50 ([3]; Homo sapiens, SF-268, read-out: Inhibition of Human Cancer Cell Lines (GI50) SF268) [ng/mL]	GI50 ([4]; Homo sapiens, read-out: Inhibition of Human Cancer Cell Lines (GI50) NCI-H460) [ng/mL]	GI50 ([5]; Homo sapiens, KM-20L2, read-out: Inhibition of Human Cancer Cell Lines (GI50) KM20L2) [ng/mL]	GI50 ([6]; Homo sapiens, read-out: Inhibition of Human Cancer Cell Lines (GI50) DU-145) [ng/mL]	MIC ([7]; ATCC90112, read-out: minimum inhibitory concentration [MIC]) [ng/mL]	MIC [9] [ng/mL]
CCC(C)[C@@H]1OC(=O)[C@H](C)OC(=O)[C@@H](NC(=O)c2cccc(NC=O)c2O)[C@@H](C)OC(=O)[C@H](CC(C)C)OC(=O)C(C)(C)C(=O)[C@H](CC(C)C)NC1=O (stereo partly shown) [Cyclodepsipeptide 1, respirantin]	470	0.6	1.6	0.6	0.6	0.18	2000 (≈ 2670 nM)									
CC[C@H](C)[C@@H]1OC(=O)[C@H](C)OC(=O)[C@@H](NC(=O)c2cccc(NC=O)c2O)[C@@H](C)OC(=O)[C@H](C(C)C)OC(=O)C(C)(C)C(=O)[C@H](CC(C)C)NC1=O [Cyclodepsipeptide 2]	1200	0.62	16	0.63	0.58	<0.1		64000 (≈ 87200 nM)								
CCC(C)[C@@H]1OC(=O)[C@H](C)OC(=O)[C@@H](NC(=O)c2cccc(N)c2O)[C@@H](C)OC(=O)[C@H](CC(C)C)OC(=O)C(C)(C)C(=O)[C@H](CC(C)C)NC1=O (stereo partly shown) [Cyclodepsipeptide 3, Kitastatin 1]									6.6 (≈ 9.17 nM)	4 (≈ 5.56 nM)	3.5 (≈ 4.86 nM)	< 1	2.4 (≈ 3.33 nM)	2.6 (≈ 3.61 nM)	64000 (≈ 88900 nM)	64000 (≈ 88900 nM)
